# Patent US20100034878A1 (priority 2006, published 2010)
# Read-outs that look alike come from different tables or passages of the source.
# What was measured:
# [1] = daily vitamin K supplementation and INR stability in patients with very unstable INRs; format: in vivo; conditions: eight patients with very unstable INR on VKA
# Procedure: The recommended dietary allowance for vitamin K is approximately 70 mcg. […] In addition, the administration of a VKA often requires that the patient take a half tablet on some days while other patients may require 1.5 or 2 tablets on other days. Consequently, the workable range of vitamin K per tablet is 10 mcg to 600 mcg, the preferred range is 25 mcg to 400 mcg, and the most preferred is 50 mcg to 200 mcg.
# It was tested whether daily vitamin K supplementation would improve stability of the INR in patients who had very unstable INRs. […] The VKORC1 status itself was not assessed because the test was done prior to the VKORC1 gene being identified. INR values were collected for several months before and after daily vitamin K was started in eight patients with very unstable INR values.
# [2] = in vivo; cited from earlier work
# [3] = in vivo; cited from earlier work; remark: listed apart in the source
# [4] = molecular target: CYP 2C9 (Homo sapiens, UniProt P11712); conditions: cited from earlier work
# Sequence of CYP 2C9 (P11712 whole entry): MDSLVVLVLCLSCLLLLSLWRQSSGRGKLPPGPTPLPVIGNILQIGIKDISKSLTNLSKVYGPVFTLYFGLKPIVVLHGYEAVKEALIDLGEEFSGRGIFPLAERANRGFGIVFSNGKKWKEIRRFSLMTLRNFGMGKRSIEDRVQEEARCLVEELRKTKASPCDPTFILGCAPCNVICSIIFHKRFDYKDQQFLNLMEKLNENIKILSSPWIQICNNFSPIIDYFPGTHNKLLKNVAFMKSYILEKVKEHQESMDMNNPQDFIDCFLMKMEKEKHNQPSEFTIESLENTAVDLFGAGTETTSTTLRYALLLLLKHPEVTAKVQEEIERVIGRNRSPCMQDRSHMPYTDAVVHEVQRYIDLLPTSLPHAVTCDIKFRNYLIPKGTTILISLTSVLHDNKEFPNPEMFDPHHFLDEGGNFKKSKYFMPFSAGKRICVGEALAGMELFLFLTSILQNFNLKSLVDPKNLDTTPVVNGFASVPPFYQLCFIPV
molecule,measurement,setting,value
vitamin K,fluctuation of INRs after starting daily vitamin K supplement,[1],fluctuated less
same,percent of INRs in range after versus before starting daily vitamin K,"[1]; daily vitamin K supplement, INR collected several months before and after",more than doubled
"CCC(c1ccccc1)c1c(O)c2ccccc2oc1=O (racemic) [Racemic phenprocoumon, phenprocoumon]",fraction eliminated as the parent drug,[2],approximately 40%
same,elimination half-life,[3],approximately 156 hrs
"CC(=O)C[C@H](c1ccccc1)c1c(O)c2ccccc2oc1=O (single isomer, unassigned) [R-isomer of warfarin]",metabolism by the 2C9 enzyme,[4],not metabolized by the 2C9 enzyme
"CC(=O)C[C@@H](c1ccccc1)c1c(O)c2ccccc2oc1=O (single isomer, unassigned) [S-isomer of warfarin]",metabolism by the 2C9 enzyme,[4]; hepatic cytochrome P-450 2C9,almost totally metabolized by the 2C9 enzyme
